Source: patent publication US10350206B2, “Benzyl substituted indazoles as BUB1 inhibitors” (Bayer Pharma Aktiengesellschaft, priority 2014, dated 2019)

Key:
[1] = target: T1, catalytic domain of human Bub1 (amino acids 704-1085) (Homo sapiens, UniProt O43683); experiment: Bub1 kinase assay (TR-FRET); assay type: biochemical; settings: 10 μM ATP, 60 min reaction, pH 7.5; read-out: Biological Assay 1: Bub1 kinase assay median IC50
T1 construct: catalytic domain of human Bub1 (amino acids 704-1085); His6 (N); made in house; host or cells: Hi5 insect cells
T1 sequence (O43683 704-1085): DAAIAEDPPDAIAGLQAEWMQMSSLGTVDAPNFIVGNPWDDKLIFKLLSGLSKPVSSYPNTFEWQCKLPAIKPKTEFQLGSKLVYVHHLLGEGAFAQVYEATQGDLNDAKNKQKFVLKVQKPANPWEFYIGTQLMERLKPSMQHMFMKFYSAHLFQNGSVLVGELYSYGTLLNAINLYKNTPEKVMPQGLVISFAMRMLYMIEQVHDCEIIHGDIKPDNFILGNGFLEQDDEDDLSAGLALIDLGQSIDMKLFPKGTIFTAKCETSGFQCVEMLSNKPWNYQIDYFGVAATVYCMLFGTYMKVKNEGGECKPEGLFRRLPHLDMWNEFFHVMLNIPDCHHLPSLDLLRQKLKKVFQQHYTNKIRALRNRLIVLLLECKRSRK
Method: To this end, 100-fold concentrated compound solutions (in DMSO) were previously prepared by serial dilution (1:3.4) of 2 mM stocks in a clear low volume 384-well source microtiter plate (Greiner Bio-One, Frickenhausen, Germany), from which 50 nL of compounds were transferred into a black low volume test microtiter plate from the same supplier. […] The resulting mixture (5 μL final volume) was incubated at 22° during 60 min., and the reaction was stopped by the addition of 5 μL of an aqueous EDTA-solution (50 mM EDTA, in 100 mM HEPES pH 7.5 and 0.2% (w/v) bovine serum albumin) which also contained the TR-FRET detection reagents (0.2 μM streptavidin-XL665 [Cisbio Bioassays, Codolet, France] and 1 nM anti-phosho-Serine antibody [Merck Millipore, cat. #35-001] and 0.4 nM LANCE EU-W1024 labeled anti-mouse IgG antibody [Perkin-Elmer, product no. AD0077, alternatively a Terbium-cryptate-labeled anti-mouse IgG antibody from Cisbio Bioassays can be used]). The stopped reaction mixture was further incubated 1 h at 22° C. in order to allow the formation of complexes between peptides and detection reagents. Subsequently, the amount of product was evaluated by measurement of the resonance energy transfer from the Eu-chelate-antibody complex recognizing the Phosphoserine residue to the streptavidin-XL665 bound to the biotin moiety of the peptide. […] IC50 values were calculated by fitting the normalized inhibition data to a 4-parameter logistic equation (Minimum, Maximum, IC50, Hill; Y=Max+(Min−Max)/(1+(X/IC50)Hill)).

[2] = test system: HeLa human cervical tumor cells; experiment: Proliferation assay (HeLa cell line); assay type: cell-based; settings: 96 h, 4 days incubation, crystal violet, read-out: Biological Assay 2: Proliferation assay (HeLa cell line) median IC50
Method: Human tumour cells were originally obtained from the American Type Culture Collection (ATCC), the Deutsche Sammlung von Mikroorganismen und Zellkulturen (DSMZ, German Collection of Microorganisms and Cell Cultures), or Epo GmbH Berlin. Cultivated HeLa human cervical tumor cells (DSMZ ACC-57) were plated at a density of 3000 cells/well in a 96-well multititer plate in 200 μL of growth medium supplemented 10% fetal calf serum. After 24 hours, the cells of one plate (zero-point plate) were stained with crystal violet (see below), while the medium of the other plates was supplemented with the test substances in various concentrations (0 μM, as well as in the range of 0.001-10 μM; the final concentration of the solvent dimethyl sulfoxide was adjusted to 0.1%) using a Hewlett-Packard HP D300 Digital Dispenser. The cells were incubated for 4 days in the presence of test substances. […] After three washing cycles of the fixed cells with water, the plates were dried at room temperature. The cells were stained by adding 100 μL/measuring point of a 0.1% crystal violet solution (pH 3.0). After three washing cycles of the stained cells with water, the plates were dried at room temperature. The dye was dissolved by adding 100 μL/measuring point of a 10% acetic acid solution. […] The change of cell number, in percent, was calculated by normalization of the measured values to the absorption values of the zero-point plate (=0%) and the absorption of the untreated (0 μm) cells (=100%). The IC50 values were determined by means of a 4 parameter fit.

[3] = test system: HeLa human cervical tumor cells; experiment: Proliferation Assay (HeLa+Paclitaxel); assay type: cell-based; settings: 3 nM paclitaxel, test substance 92 hours; read-out: Biological Assay 3: Proliferation Assay (HeLa + Paclitaxel) IC50
Method: Proliferation Assay (HeLa+Paclitaxel):
Cultivated HeLa human cervical tumor cells (DSMZ ACC-57) were plated at a density of 3000 cells/well in a 96-well multititer plate in 200 μL of growth medium supplemented 10% fetal calf serum. After 24 hours, the cells of one plate (zero-point plate) were stained with crystal violet (see below). The medium of the other plates was supplemented with 3 nM of paclitaxel (Sigma-Aldrich) and the cells were incubated at 37° C. After 4 hours the test substances were added in various concentrations (0 μM, as well as in the range of 0.001-10 μM; the final concentration of the solvent dimethyl sulfoxide was adjusted to 0.1%) using a Hewlett-Packard HP D300 Digital Dispenser. The cells were incubated for another 92 hours at 37° C. in the presence of test substances. […] After three washing cycles of the fixed cells with water, the plates were dried at room temperature. The cells were stained by adding 100 μL/measuring point of a 0.1% crystal violet solution (pH 3.0). After three washing cycles of the stained cells with water, the plates were dried at room temperature. The dye was dissolved by adding 100 μL/measuring point of a 10% acetic acid solution. […] The change of cell number, in percent, was calculated by normalization of the measured values to the absorption values of the zero-point plate (=0%) and the 5 absorption of the untreated (0 μm) cells (=100%). The IC50 values were determined by means of a 4 parameter fit.

[4] = test system: Bub1 kinase (histone 2A phosphorylation); experiment: H2A Formation-Assay (cell-based mechanistic assay, co-treatment with Nocodazole); settings: 16 h, Nocodazole 1 μg/ml together with test compound for 16 h; read-out: Biological Assay 4.1: H2A Formation IC50
Method: Biological Assay 4.1: Formation-Assay
Cell-Based Mechanistic Assay: Changes of Phosphorylation Status of Histone 2A by Inhibition of Kinase Activity of Bub1
This assay determines the suppression of histone 2A phosphorylation by a Bub1 kinase inhibitor during co-treatment with Nocodazole. 25000 cells (cells were ordered from ATCC) were seeded in 96 well plate for 5 h at 37° C. Cells were treated with Nocodazole (1 μg/ml) and varying concentrations (between 3 nM and 10 μM) of test compounds for 16h. Cells were fixed (20 min, Fixing solution R&D), washed three times with PBS and blocked with Odyssey blocking buffer before incubating with the primary antibody against phosphorylated H2A (5 μg/ml ABIN482721) overnight at […]. After washing, secondary IRDye-labeled antibody mix with cell stains was added for 1h and washed again with PBS. Plates were scanned with LiCor Odyssey Infrared Imager CLx at 800 nm for P-H2A and at 700 nm for cell stains Draq5/Sapphire. The quotient of 800 nm and 700 nm for Nocodazole only treated cells was set as 100% and the quotient of 800 nm and 700 nm of untreated cells was set as 0%. […] The IC50 values were determined by means of a 4 parameter fit.
(§1) Histone H2A is an immediate intracellular substrate of Bub1 kinase. Determination of the phosphorylation status of Histone H2A provides a direct measure of the intracellular activity of Bub1 kinase.

[5] = test system: Bub1 kinase (pre-induced phospho-histone 2A); experiment: H2A Abrogation-Assay (cell-based mechanistic assay, pre-treatment with Nocodazole); settings: Nocodazole 1 μg/ml 16 h, then test compound 1 h; read-out: Biological Assay 4.2: H2A Abrogation IC50
Method: Biological Assay 4.2: Abrogation-Assay
Cell-Based Mechanistic Assay: Changes of Phosphorylation Status of Pre-Induced Phospho-Histone 2A by Inhibition of Kinase Activity of Bub1
This assay measures the inhibition of histone 2A phosphorylation, which was induced by pre-treatment of the cells with Nocodazole, by a Bub1 kinase inhibitor. 25000 cells (cells were ordered from ATCC) were seeded in 96 well plate for 5 h at 37° C. Cells were treated with Nocodazole (1 μg/ml). After 16h varying concentrations (between 3 nM and 10 μM) of test compounds were added and the cells were incubated for another 1h. Cells were fixed (20 min, Fixing solution R&D), washed three times with PBS and blocked with Odyssey blocking buffer before incubating with the primary antibody against phosphorylated H2A (5 μg/ml ABIN482721) overnight at 2-8° C. After washing, secondary IRDye-labeled antibody mix with cell stains was added for 1h and washed again with PBS. Plates were scanned with LiCor Odyssey Infrared Imager CLx at 800 nm for P-H2A and at 700 nm for cell stains Draq5/Sapphire. The quotient of 800 nm and 700 nm for Nocodazole only treated cells was set as 100% and the quotient of 800 nm and 700 nm of untreated cells was set as 0%. […] The IC50 values were determined by means of a 4 parameter fit.
as §1

IC50 [1] [nM] | IC50 [2] [µM] | IC50 [3] [nM] | IC50 [4] [nM] | IC50 [5] [nM] | SMILES
28 | 6.9 | 110 | 63 | 0.31 | COc1cnccc1Nc1nc(-c2nn(Cc3c(F)cc(OC[C@H](C)CO)cc3F)c3ccccc23)ncc1OC [Example 2-3-7, (2R)-3-{3,5-difluoro-4-[(3-{5-methoxy-4-[(3-methoxypyridin-4-yl)amino]pyrimidin-2-yl}-1H-indazol-1-yl)methyl]phenoxy}-2-methylpropan-1-ol]
19 | > 10 | 120 | 53 | 0.27 | COc1cnc(-c2nn(Cc3c(F)cc(OC[C@H](C)CO)cc3F)c3ccccc23)nc1Nc1ccnc(NC(C)=O)c1 [Example 2-3-6, N-[4-({2-[1-(2,6-difluoro-4-{[(2R)-3-hydroxy-2-methylpropyl]oxy}benzyl)-1H-indazol-3-yl]-5-methoxypyrimidin-4-yl}amino)pyridin-2-yl]acetamide]
52 | 2.4 | 660 | 74 | 920 | CCOc1cc(F)c(Cn2nc(-c3ncc(OC)c(Nc4ccncc4)n3)c3ccccc32)c(F)c1 [Example 6-4-1, 2-[1-(4-ethoxy-2,6-difluorobenzyl)-1 H-indazol-3-yl]-5-methoxy-N-(pyridin-4-yl)pyrimidin-4-amine, reference compound]
14 | 1.4 | 51 | 35 | 2.1 | COc1cnc(-c2nn(Cc3c(F)cc(OCCO)cc3F)c3ccccc23)nc1Nc1ccnc(C)c1OC [Example 2-1-18, 2-{3,5-difluoro-4-[(3-{5-methoxy-4-[(3-methoxy-2-methylpyridin-4-yl)amino]pyrimidin-2-yl}-1H-indazol-1-yl)methyl]phenoxy}ethanol]
10 | 3.1 | 150 | 6.9 | 600 | COc1cnc(-c2nn(Cc3c(F)cc(OCCO)cc3F)c3ccccc23)nc1Nc1ccncc1C [Example 2-1-5, 2-{3,5-difluoro-4-[(3-{5-methoxy-4-[(3-methylpyridin-4-yl)amino]pyrimidin-2-yl}-1H-indazol-1-yl)methyl]phenoxy}ethanol]
5 | > 10 | 510 | 18 | 2.7 | COc1cnc(-c2nn(Cc3c(F)cc(OCCO)cc3F)c3ccccc23)nc1Nc1ccncn1 [Example 2-1-13, 2-[3,5-difluoro-4-({3-[5-methoxy-4-(pyrimidin-4-ylamino)pyrimidin-2-yl]-1H-indazol-1-yl}methyl)phenoxy]ethanol]
33 | > 10 | 420 | 6 | 11 | COc1cnc(-c2nn(Cc3c(F)cc(OCCO)cc3F)c3ccccc23)nc1Nc1cc(C)ncc1F [Example 2-1-12, 2-{3,5-difluoro-4-[(3-{4-[(5-fluoro-2-methylpyridin-4-yl)amino]-5-methoxypyrimidin-2-yl}-1H-indazol-1-yl)methyl]phenoxy}ethanol]
